Source: PMC5513680 (Medical Science Monitor : International Medical Journal of …, 2017)

Legend:
Format in all cases: biochemical
[1] = biological target: butylcholinesterase (BuChE) (Homo sapiens, UniProt P06276); test: BChE inhibition assay
[2] = biological target: Acetylcholinesterase (AChE) (Homo sapiens, UniProt P22303); test: AChE inhibition assay; conditions: for Selectivity Index (SI): determined by BuChE/AChE (IC50 ratio)
β-secretase = β-secretase (Homo sapiens, UniProt P56817); test: β-secretase inhibition assay
Sequence of β-secretase (P56817 46-501): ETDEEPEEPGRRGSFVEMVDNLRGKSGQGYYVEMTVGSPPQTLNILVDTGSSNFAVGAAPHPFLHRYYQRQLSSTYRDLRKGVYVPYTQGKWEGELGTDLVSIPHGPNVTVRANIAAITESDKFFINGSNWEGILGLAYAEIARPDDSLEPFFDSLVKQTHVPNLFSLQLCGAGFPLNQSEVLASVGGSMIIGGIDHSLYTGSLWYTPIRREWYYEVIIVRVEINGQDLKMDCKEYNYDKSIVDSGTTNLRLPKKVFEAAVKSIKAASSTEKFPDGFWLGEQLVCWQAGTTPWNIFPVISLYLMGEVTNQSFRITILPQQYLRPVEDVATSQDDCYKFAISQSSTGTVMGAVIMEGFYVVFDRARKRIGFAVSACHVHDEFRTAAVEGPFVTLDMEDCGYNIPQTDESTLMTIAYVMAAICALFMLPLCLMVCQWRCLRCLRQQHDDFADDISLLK

Aβ (1–42) = Aβ (1–42) (Homo sapiens, UniProt P05067); test: Self-mediated Aβ
Sequence of Aβ (1–42) (P05067 672-713): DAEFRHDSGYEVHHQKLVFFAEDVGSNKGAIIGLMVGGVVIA

Sequence of butylcholinesterase (BuChE) (P06276 29-602): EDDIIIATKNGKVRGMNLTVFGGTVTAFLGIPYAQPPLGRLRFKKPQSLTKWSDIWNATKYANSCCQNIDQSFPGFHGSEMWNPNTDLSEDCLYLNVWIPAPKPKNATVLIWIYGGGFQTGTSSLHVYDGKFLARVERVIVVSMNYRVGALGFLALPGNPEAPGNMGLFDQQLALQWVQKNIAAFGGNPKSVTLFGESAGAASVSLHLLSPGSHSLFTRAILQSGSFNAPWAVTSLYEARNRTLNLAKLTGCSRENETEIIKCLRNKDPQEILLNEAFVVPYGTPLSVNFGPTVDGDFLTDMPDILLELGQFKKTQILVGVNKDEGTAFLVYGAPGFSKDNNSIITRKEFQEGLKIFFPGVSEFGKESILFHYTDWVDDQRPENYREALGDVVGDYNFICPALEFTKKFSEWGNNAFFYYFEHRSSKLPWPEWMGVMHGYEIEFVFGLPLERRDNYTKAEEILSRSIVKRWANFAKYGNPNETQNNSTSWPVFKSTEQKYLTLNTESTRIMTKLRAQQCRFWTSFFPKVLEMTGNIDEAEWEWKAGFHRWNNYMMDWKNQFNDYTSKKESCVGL
Sequence of Acetylcholinesterase (AChE) (P22303 32-614, species assumed): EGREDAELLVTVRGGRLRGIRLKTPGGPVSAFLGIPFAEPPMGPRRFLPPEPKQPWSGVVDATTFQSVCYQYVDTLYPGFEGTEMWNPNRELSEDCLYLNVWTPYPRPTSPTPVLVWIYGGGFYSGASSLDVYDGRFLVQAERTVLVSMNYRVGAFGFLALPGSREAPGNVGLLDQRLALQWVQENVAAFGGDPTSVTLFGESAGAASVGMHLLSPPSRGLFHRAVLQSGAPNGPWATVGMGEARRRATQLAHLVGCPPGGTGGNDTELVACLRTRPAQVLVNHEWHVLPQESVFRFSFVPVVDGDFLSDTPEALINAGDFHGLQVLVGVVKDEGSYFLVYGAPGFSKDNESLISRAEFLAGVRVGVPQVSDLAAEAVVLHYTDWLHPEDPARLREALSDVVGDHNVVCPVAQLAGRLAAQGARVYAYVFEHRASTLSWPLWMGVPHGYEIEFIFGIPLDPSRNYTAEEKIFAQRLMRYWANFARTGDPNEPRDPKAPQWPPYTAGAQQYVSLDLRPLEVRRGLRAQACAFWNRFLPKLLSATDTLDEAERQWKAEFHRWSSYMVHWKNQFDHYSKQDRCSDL

## O=C(/C=C/c1ccccc1)c1ccc(OCCNC2CCN(Cc3ccc(F)cc3)CC2)cc1 [8d, (E)-1-(4-(2-((1-(4-fluorobenzyl)piperidin-4-yl)amino)ethoxy)phenyl)-3-phenylprop-2-en-1-one]
[1]
  IC50: 26.5 ± 0.28 µM
[2]
  IC50: 14.2 ± 0.15 µM
  Selectivity Index (SI): 1.86

## Cc1ccc(CN2CCC(NCCOc3ccc(C(=O)/C=C/c4ccccc4)cc3)CC2)cc1 [8g, (E)-1-(4-(2-((1-(4-methylbenzyl)piperidin-4-yl)amino)ethoxy)phenyl)-3-phenylprop-2-en-1-one]
[1]
  IC50: 3.23 ± 0.12 µM
[2]
  IC50: 1.12 ± 0.13 µM
  Selectivity Index (SI): 2.88
β-secretase
  IC50: 23.1 ± 1.8 µM
Aβ (1–42)
  IC50: 18.2 ± 2.3 µM

## COc1ccc(CN2CCC(NCCOc3ccc(C(=O)/C=C/c4ccccc4)cc3)CC2)cc1 [8f, (E)-1-(4-(2-((1-(4-methoxybenzyl)piperidin-4-yl)amino)ethoxy)phenyl)-3-phenylprop-2-en-1-one]
[1]
  IC50: 9.45 ± 0.25 µM
[1]; relative to 8g
  fold less active against BuChE than the parent compound (8g): approximately 3 fold
[2]
  IC50: 4.22 ± 0.34 µM
  Selectivity Index (SI): 2.23
[2]; relative to 8g
  fold less active against AChE than the parent compound (8g): approximately 3 fold

## O=C(/C=C/c1ccccc1)c1ccc(OCCNC2CCN(Cc3ccc(Br)cc3)CC2)cc1 [8c, (E)-1-(4-(2-((1-(4-bromobenzyl)piperidin-4-yl)amino)ethoxy)phenyl)-3-phenylprop-2-en-1-one]
[1]
  IC50: 28.4 ± 0.42 µM
[2]
  IC50: 18.1 ± 0.33 µM
  Selectivity Index (SI): 1.56

## O=C(/C=C/c1ccccc1)c1ccc(OCCNC2CCN(Cc3ccc(Cl)cc3)CC2)cc1 [8b, (E)-1-(4-(2-((1-(4-chlorobenzyl)piperidin-4-yl)amino)ethoxy)phenyl)-3-phenylprop-2-en-1-one]
[1]
  IC50: 19.45 ± 0.15 µM
[2]
  IC50: 10 ± 0.54 µM
  Selectivity Index (SI): 1.93

## O=C(/C=C/c1ccccc1)c1ccc(OCCNC2CCN(Cc3ccc(Cl)c(Cl)c3)CC2)cc1 [8h, (E)-1-(4-(2-((1-(3,4-dichlorobenzyl)piperidin-4-yl)amino)ethoxy)phenyl)-3-phenylprop-2-en-1-one]
[2]
  Selectivity Index (SI): 1.06

## O=C(/C=C/c1ccccc1)c1ccc(OCCNC2CCN(Cc3ccc([N+](=O)[O-])cc3)CC2)cc1 [8e, (E)-1-(4-(2-((1-(4-nitrobenzyl)piperidin-4-yl)amino)ethoxy)phenyl)-3-phenylprop-2-en-1-one]
[1]
  IC50: 25 ± 0.31 µM
[2]
  IC50: 28.62 ± 0.22 µM
  Selectivity Index (SI): 0.87

## O=C(/C=C/c1ccccc1)c1ccc(OCCNC2CCN(Cc3ccccc3)CC2)cc1 [8a, (E)-1-(4-(2-((1-benzylpiperidin-4-yl)amino)ethoxy)phenyl)-3-phenylprop-2-en-1-one]
[1]
  IC50: 21.72 ± 0.11 µM
[2]
  IC50: 32.34 ± 0.26 µM
  Selectivity Index (SI): 0.67
